ChEMBL document CHEMBL1201862, “PubChem BioAssay data set” (2004)
Active and inactive are the calls of the source. Cut-off read from the data, not from the text of the source, for most assays here: actives have a measured IC50 and inactives only a lower limit.

Experiments:
[1] = target: T1, Apoptotic protease-activating factor 1 (Homo sapiens, UniProt O14727); assay type: functional
T1 sequence (O14727 whole entry): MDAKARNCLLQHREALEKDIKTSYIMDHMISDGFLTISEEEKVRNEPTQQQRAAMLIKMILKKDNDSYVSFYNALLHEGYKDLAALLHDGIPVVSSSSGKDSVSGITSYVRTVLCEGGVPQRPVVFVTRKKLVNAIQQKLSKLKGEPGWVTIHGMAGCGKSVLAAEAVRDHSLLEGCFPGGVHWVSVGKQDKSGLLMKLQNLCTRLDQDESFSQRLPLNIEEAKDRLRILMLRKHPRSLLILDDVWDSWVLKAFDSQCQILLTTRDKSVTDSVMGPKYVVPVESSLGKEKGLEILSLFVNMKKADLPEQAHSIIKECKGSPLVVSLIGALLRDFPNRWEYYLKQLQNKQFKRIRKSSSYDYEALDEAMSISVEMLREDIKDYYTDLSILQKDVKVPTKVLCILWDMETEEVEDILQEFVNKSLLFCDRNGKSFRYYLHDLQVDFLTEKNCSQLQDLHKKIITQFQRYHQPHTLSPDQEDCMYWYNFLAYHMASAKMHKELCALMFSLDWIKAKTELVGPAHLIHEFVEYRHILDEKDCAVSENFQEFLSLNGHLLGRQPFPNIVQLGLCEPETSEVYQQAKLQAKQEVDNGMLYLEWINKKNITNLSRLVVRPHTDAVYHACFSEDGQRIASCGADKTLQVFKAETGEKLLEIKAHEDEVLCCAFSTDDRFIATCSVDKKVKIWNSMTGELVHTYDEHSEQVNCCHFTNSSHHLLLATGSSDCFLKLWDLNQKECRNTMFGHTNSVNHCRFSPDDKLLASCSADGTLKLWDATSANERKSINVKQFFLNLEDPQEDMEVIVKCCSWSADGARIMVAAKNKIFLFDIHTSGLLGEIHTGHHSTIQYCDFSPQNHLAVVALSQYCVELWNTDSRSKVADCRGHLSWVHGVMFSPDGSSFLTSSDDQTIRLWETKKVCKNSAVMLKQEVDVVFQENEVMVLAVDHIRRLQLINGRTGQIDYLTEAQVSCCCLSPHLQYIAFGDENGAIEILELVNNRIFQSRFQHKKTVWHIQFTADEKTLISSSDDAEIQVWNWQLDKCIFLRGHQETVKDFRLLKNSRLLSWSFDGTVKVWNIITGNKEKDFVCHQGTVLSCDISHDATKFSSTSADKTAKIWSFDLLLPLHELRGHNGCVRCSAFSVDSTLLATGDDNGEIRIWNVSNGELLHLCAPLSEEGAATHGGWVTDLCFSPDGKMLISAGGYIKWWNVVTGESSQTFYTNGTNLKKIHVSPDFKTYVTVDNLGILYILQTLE

[2] = target: T2, Ubiquitin-conjugating enzyme E2 N (Homo sapiens, UniProt P61088); assay type: functional;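 note: Dose-response confirmation in a TR-FRET assay detecting UBC13-driven polyubiquitin chain formation, inhibition measured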
T2 sequence (P61088 whole entry): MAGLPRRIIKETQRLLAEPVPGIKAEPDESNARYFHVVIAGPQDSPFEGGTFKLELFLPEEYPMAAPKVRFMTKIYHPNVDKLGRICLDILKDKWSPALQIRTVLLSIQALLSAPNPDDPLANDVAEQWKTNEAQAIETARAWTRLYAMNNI

[3] = target: T3, Histone-lysine N-methyltransferase NSD2 (Homo sapiens, UniProt O96028); assay type: biochemical
T3 sequence (O96028 whole entry): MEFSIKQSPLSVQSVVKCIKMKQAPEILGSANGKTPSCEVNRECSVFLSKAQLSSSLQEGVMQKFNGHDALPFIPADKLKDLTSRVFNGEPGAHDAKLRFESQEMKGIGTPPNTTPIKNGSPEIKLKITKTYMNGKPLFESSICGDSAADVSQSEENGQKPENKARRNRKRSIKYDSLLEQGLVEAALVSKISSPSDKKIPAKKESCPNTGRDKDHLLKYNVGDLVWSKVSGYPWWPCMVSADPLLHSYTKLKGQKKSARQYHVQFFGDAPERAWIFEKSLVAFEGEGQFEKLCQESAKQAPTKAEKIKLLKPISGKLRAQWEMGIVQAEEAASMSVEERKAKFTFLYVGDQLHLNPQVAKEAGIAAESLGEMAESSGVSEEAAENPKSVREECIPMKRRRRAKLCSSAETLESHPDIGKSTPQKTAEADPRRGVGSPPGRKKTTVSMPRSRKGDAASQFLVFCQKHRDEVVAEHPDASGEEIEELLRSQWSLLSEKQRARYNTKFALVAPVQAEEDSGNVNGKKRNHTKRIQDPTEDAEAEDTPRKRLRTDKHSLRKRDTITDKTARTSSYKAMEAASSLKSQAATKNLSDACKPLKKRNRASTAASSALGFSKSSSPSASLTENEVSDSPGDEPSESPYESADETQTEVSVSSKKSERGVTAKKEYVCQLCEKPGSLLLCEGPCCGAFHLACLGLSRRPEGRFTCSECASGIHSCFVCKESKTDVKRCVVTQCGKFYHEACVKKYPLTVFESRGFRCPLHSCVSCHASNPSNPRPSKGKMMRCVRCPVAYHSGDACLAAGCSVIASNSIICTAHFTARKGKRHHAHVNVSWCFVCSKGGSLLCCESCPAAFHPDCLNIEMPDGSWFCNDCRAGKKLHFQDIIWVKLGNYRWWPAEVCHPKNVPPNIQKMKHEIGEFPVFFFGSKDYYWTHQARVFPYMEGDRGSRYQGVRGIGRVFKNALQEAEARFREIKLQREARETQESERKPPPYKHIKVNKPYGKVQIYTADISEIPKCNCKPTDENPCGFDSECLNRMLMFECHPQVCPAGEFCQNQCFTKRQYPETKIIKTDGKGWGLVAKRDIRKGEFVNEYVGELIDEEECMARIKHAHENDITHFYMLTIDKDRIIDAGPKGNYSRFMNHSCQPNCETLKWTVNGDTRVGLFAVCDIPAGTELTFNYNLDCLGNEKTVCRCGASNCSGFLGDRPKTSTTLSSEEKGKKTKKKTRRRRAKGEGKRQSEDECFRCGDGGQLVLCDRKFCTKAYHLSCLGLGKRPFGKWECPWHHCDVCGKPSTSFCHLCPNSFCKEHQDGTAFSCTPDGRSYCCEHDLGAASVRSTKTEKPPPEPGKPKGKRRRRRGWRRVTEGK

Row | Structure (SMILES) | IC50 [1] | IC50 [2] | AC50 [3]
1 | CCOC(=O)c1c(-c2ccc(-c3ccccc3)cc2)csc1NC(=O)CNCCN(C)C | 32.5 µM (active) | 11.4 µM (active) | –
2 | COc1cc(-c2nnc(SCc3cc(=O)oc4cc(O)c(O)cc34)o2)cc(OC)c1OC | – | – | 0.665 µM (active)
3 | N#Cc1c(NC(=O)c2ccc(Br)o2)n(-c2ccccc2)c2nc3ccccc3nc12 | 7.22 µM (active) | – | 11.6 µM (active)
4 | CCCCCCCCCCOC(=O)Cn1c(COc2ccccc2)[n+](C)c2ccccc21 | 12.6 µM (active) | > 20 µM (inactive) | –
5 | CC(C)[n+]1ccn(C2=C([N-]S(=O)(=O)c3ccccc3)C(=O)c3ccccc3C2=O)c1 | 7.16 µM (active) | – | 5.79 µM (active)
